Laboratory results from patent publication US9149523B2, “Compositions and methods for treating cancer and neurodegenerative diseases” (Yeda Research and Development Co. Ltd., priority 2010, dated 2015).

Target: T1, DAPk WT (Homo sapiens, UniProt P53355)
T1 construct: Plasmids encoding N-terminal Flag and hemaglutinin (HA)-tagged human full-length DAPk (Flag-DAPk and HA-DAPk); made in house; host or cells: HEK 293T cells, transient transfection; anti-FLAG M2 immunoprecipitation, elution with FLAG peptide
Assay: In vitro kinase assay (ELISA, hMLC Ser 19 phosphorylation)
Format: biochemical
Details: DAPk WT pre-incubated with GDP versus Gpp(NH)p (non-hydrolysable GTP analog); FIG. 4C
Experimental: Maxisorp™ multiwell polystyrene plates (Nunc, Langenselbold, Germany) were incubated at 4° C., overnight, with the indicated amounts of hMLC diluted in PBS. Plates were washed with PBST and blocked with 4% BSA (Sigma, City, State) diluted in PBS. The kinase reactions were then performed on the plate. Briefly, the wells were incubated with kinase buffer (50 mM Hepes, pH 7.5, 20 mM MgCl2, 0.1 mg/mL BSA, 50 mM β-glycerol phosphate, 50 μM ATP) containing 2.5 nM of the indicated enzyme, for 10 min. The reactions were stopped by addition of EDTA to final concentration of 25 mM. Plates were washed again with PBST and then incubated with rabbit anti MLC (Ser19) polyclonal antibody (Cell Signaling, Danvers, Mass.) at a 1:250 dilution in PBS. PBST wash was performed again and the plate incubated with HRP-conjugated goat anti rabbit IgG (Jackson ImmunoResearch, West Grove, Pa.). Detection was done with the HRP substrate ABTS. Where indicated the HRP read outs were plot using the Michaelis-Menten equation and the curves fit by the least squares method.
To determine the significance to DAPk's enzymatic activity of the ROC domain in general and of the GTP-binding in particular, in vitro kinase assays were performed. The assays were based on an ELISA format measuring phosphorylation of the DAPk substrate hMLC at Ser 19, using specific anti-phospho Ser19 antibodies. […]

T1 sequence (P53355 whole entry): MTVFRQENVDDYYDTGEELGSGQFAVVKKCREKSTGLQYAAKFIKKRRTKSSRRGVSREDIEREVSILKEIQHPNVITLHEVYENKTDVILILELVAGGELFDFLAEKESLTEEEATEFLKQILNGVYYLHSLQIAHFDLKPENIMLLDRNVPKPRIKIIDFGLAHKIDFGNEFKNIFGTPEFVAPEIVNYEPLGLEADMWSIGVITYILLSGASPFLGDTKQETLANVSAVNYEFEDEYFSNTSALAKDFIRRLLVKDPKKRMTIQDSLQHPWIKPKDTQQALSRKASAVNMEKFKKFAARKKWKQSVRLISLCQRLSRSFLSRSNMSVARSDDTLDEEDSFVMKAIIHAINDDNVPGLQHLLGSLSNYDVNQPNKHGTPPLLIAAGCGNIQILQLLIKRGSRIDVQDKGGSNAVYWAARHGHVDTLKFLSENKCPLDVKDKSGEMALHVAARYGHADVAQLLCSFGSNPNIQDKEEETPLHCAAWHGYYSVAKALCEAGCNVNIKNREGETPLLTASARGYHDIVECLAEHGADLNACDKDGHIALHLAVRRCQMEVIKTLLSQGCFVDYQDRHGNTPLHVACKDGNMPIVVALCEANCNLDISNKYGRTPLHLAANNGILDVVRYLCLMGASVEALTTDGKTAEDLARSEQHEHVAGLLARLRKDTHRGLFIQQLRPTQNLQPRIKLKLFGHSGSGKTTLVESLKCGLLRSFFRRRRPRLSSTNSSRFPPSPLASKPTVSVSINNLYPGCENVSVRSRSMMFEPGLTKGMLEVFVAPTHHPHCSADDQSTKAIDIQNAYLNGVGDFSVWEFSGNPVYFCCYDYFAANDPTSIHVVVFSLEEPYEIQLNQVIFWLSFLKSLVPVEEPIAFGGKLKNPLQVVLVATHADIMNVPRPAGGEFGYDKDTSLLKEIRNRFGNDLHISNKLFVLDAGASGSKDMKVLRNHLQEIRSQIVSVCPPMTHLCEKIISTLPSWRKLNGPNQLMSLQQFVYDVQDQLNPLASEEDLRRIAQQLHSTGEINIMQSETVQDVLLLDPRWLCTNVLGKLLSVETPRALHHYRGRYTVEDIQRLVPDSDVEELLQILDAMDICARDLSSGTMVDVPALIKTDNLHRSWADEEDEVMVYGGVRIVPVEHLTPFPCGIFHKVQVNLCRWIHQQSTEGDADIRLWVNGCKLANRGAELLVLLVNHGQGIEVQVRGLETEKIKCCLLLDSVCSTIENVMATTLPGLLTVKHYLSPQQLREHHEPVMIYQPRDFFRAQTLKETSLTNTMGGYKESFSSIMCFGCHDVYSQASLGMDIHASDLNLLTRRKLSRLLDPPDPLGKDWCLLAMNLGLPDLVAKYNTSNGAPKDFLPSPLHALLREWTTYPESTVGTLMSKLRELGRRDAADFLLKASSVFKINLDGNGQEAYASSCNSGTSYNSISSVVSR

DAPk catalytic activity: increased catalytic activity
SMILES: Nc1nc2c(ncn2[C@@H]2O[C@H](COP(=O)(O)OP(=O)(O)O)[C@@H](O)[C@H]2O)c(=O)[nH]1 [GDP]
